Test results as given in patent US10703756B2, “Pyrrolo[2,3-D]pyrimidinyl, pyrrolo[2,3-B]pyrazinyl, pyrrolo[2,3-B]pyridinyl acrylamides and epoxides thereof” (Pfizer Inc., priority 2015, dated 2020).

Key:
[1] = system: IL-15 induced STAT5 phosphorylation in human whole blood lymphocytes; experiment: HWB IL-15 Induced STAT5 Phosphorylation Assay; format: cell-based; conditions: Lymphocyte, IL-15 final 50 ng/ml, read-out: HWB_IL15 pSTAT5 IC50
Experimental: HWB IL-15 Induced STAT5 Phosphorylation Assay
After serial dilution of the test compounds 1:2 in DMSO at desired concentration (500× of final), the compounds were further diluted in PBS (by adding 4 μL compound/DMSO in 96 μL PBS, [DMSO]=4%, 20× final). To 96-well polypropylene plates were added 90 μl HWB (heparin treated Human Whole Blood)/well, followed by 5 μl/well 4% DMSO in D-PBS or various concentrations of 20× inhibitor in 4% DMSO in D-PBS (w/o Ca^+2 or Mg^+2) to give 1× in 0.2% DMSO. After mixing and incubating for 45 minutes at 37° C., 5 μl D-PBS (unstimulated control) or 20× stocks of 5 μl human IL-15 (final concentration is 50 ng/ml) were added, and mixed three times. After incubating 15 minutes at 37° C., 1× Lyse/Fix Buffer (BD Phosflow 5× Lyse/Fix Buffer) was added to all wells at 1000 μl/well, then incubated for 20 minutes at 37° C. and spun 5 mins at 1200 rpm. After washing in 1000 μl FACS buffer 1× and spinning for 5 mins at 1200 rpm, 400 μl ice cold Perm Buffer III were added to each well. After mixing gently (1-2×) and incubating on ice for 30 minutes, spinning for 5 mins at 1200 rpm without interruption, and washing 1× in cold […] FACS buffer (D-PBS containing 0.1% BSA and 0.1% sodium azide) 250 μl/well of the desired AlexaFluor647-conjugated anti-phospho STATS antibody at 1:125 dilution in FACS buffer was added. Following incubating at 4° C. over night, all the samples were transferred to 96-well polypropylene U-bottom plate, and checked by flow cytometry gated on total lymphocytes.

JAK3 enzyme [2] = biological target: T1, JAK3 enzyme (Homo sapiens, UniProt P52333); experiment: JAK Caliper Enzyme Assay at 4 μM ATP; format: biochemical
T1 sequence (P52333 1-1124): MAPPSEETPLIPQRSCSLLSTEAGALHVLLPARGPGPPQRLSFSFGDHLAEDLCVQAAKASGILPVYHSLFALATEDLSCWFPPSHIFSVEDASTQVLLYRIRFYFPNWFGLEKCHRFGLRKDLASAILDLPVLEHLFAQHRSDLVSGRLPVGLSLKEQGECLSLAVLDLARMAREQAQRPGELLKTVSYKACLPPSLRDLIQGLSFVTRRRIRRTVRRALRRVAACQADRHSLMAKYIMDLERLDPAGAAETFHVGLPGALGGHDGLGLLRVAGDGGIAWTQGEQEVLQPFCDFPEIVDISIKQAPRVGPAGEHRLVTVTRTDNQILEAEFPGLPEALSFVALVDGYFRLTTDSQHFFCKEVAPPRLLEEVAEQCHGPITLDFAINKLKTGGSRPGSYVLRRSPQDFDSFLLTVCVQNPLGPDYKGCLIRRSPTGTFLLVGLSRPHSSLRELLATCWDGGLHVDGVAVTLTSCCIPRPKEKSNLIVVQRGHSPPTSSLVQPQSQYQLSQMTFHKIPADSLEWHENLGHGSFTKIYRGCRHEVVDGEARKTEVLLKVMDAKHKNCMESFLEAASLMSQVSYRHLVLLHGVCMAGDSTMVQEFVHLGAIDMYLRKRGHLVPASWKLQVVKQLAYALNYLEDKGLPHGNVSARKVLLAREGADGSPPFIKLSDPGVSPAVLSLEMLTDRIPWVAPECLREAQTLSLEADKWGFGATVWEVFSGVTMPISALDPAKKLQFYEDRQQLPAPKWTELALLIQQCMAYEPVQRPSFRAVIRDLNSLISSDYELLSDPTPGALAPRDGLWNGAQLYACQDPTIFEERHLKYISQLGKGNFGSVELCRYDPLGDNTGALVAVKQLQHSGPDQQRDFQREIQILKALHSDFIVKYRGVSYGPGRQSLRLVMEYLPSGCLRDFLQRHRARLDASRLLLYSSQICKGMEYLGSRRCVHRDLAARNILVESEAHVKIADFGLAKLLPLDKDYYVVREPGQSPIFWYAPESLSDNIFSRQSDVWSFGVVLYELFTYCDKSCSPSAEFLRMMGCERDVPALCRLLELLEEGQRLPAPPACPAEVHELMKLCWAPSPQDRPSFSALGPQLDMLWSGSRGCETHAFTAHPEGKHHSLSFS
Method in brief: (§1)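 Compound tested as 11-point half-log DMSO dilution series (top 600 μM in DMSO, a dilution-plate level). Enzyme level and time set for 20%-30% peptide phosphorylation; phosphorylated and unphosphorylated peptide separated and quantified by Caliper LC3000 mobility shift.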

JAK3 enzyme [3] = biological target: T1, JAK3 enzyme; experiment: JAK Caliper Enzyme Assay at 1 mM ATP; format: biochemical
Method in brief: as §1

[4] = system: IL-15 induced P-STAT5 in human PBMC; experiment: PBMC IL-15 Induced P-STAT5; format: cell-based; conditions: human PBMC, IL-15 final 41 ng/mL; read-out: PBMC IL15_pSTAT5_IC50
Method in brief: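 Thawed human PBMC, rested in human plasma, were preincubated 15 min at 37 °C with compound (0.2% DMSO), then stimulated 15 min with IL-15 at 41 ng/mL final. After paraformaldehyde fixation and methanol permeabilisation, Alexa Fluor 647 anti-STAT5 staining overnight at 4 °C was analysed by flow cytometry on total lymphocytes.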

IC50 [1] | IC50 (JAK3 enzyme [2]) | IC50 (JAK3 enzyme [3]) | Compound | IC50 [4]
0.637 µM | 0.000393 µM | 0.005 µM | C=CC(=O)N1CCC(Nc2cnc3[nH]cc(C(=O)NCC4CCC4)c3n2)CC1 [Example 193, 2-[(1-acryloylpiperidin-4-yl)amino]-N-(cyclobutylmethyl)-5H-pyrrolo[2,3-b]pyrazine-7-carboxamide] | 0.0684 µM
0.688 µM | 0.000494 µM | 0.007 µM | C=CC(=O)N1CCC(Nc2cnc3[nH]cc(C(=O)NCc4sc(C)nc4C(F)(F)F)c3n2)CC1 [Example 195, 2-[(1-acryloylpiperidin-4-yl)amino]-N-{[2-methyl-4-(trifluoromethyl)-1,3-thiazol-5-yl]methyl}-5H-pyrrolo[2,3-b]pyrazine-7-carboxamide] | 0.0827 µM
1.4 µM | 0.000361 µM | 0.053 µM | C=CC(=O)N1CCC(Oc2cnc3[nH]cc(C(=O)NCCC(F)(F)F)c3n2)CC1 [Example 198, 2-[(1-acryloylpiperidin-4-yl)oxy]-N-(3,3,3-trifluoropropyl)-5H-pyrrolo[2,3-b]pyrazine-7-carboxamide] | 0.25 µM
2.02 µM | 0.000414 µM | 0.047 µM | C=CC(=O)N1CCC(Oc2cnc3[nH]cc(C(=O)N[C@@H]4CC[C@H](F)C4)c3n2)CC1 [Example 199, 2-[(1-acryloylpiperidin-4-yl)oxy]-N-[(1R,3S)-3-fluorocyclopentyl]-5H-pyrrolo[2,3-b]pyrazine-7-carboxamide] | 0.25 µM
1.74 µM | 0.0005 µM | 0.074 µM | C=CC(=O)N1CCC(Oc2cnc3[nH]cc(C(=O)NCCOC)c3n2)CC1 [Example 211, 2-[(1-acryloylpiperidin-4-yl)oxy]-N-(2-methoxyethyl)-5H-pyrrolo[2,3-b]pyrazine-7-carboxamide] | 0.395 µM
1.02 µM | 0.00038 µM | 0.053 µM | C=CC(=O)N1CCC(Oc2cnc3[nH]cc(C(=O)NCC(C)C)c3n2)CC1 [Example 222, 2-[(1-acryloylpiperidin-4-yl)oxy]-N-(2-methylpropyl)-5H-pyrrolo[2,3-b]pyrazine-7-carboxamide] | 0.28 µM
0.528 µM | 0.0002 µM | 0.022 µM | C=CC(=O)N1CCN(c2cnc3[nH]cc(C(=O)NCC4CCCC4)c3n2)CC1 [Example 266, 2-(4-acryloylpiperazin-1-yl)-N-(cyclopentylmethyl)-5H-pyrrolo[2,3-b]pyrazine-7-carboxamide] | 0.0642 µM
2.46 µM | 0.00123 µM | 0.07 µM | C=CC(=O)N1CC[C@@H](Nc2cnc3[nH]cc(C(=O)NCCC(F)(F)F)c3n2)[C@@H](OC)C1 [Example 278, 2-{[(3S,4R)-1-acryloyl-3-methoxypiperidin-4-yl]amino}-N-(3,3,3-trifluoropropyl)-5H-pyrrolo[2,3-b]pyrazine-7-carboxamide] | 0.272 µM
1.2 µM | 0.000509 µM | 0.097 µM | C=CC(=O)N1CCN(c2cnc3[nH]cc(C(=O)NC4CC(F)(F)C4)c3n2)CC1 [Example 283, 2-(4-acryloylpiperazin-1-yl)-N-(3,3-difluorocyclobutyl)-5H-pyrrolo[2,3-b]pyrazine-7-carboxamide] | 0.257 µM
0.718 µM | 0.00043 µM | 0.045 µM | C=CC(=O)N1CCN(c2cnc3[nH]cc(C(=O)NC4CCC4)c3n2)CC1 [Example 297, 2-(4-acryloylpiperazin-1-yl)-N-cyclobutyl-5H-pyrrolo[2,3-b]pyrazine-7-carboxamide] | 0.15 µM
3.03 µM | 0.000431 µM | 0.044 µM | C=CC(=O)N1CCC(C)(Nc2cnc3[nH]cc(C(=O)NCC(C)C)c3n2)CC1 [Example 301, 2-[(1-acryloyl-4-methylpiperidin-4-yl)amino]-N-(2-methylpropyl)-5H-pyrrolo[2,3-b]pyrazine-7-carboxamide] | 0.387 µM
0.524 µM | 0.000194 µM | 0.029 µM | C=CC(=O)N1CCN(c2cnc3[nH]cc(C(=O)NCC(C)(C)C)c3n2)CC1 [Example 304, 2-(4-acryloylpiperazin-1-yl)-N-(2,2-dimethylpropyl)-5H-pyrrolo[2,3-b]pyrazine-7-carboxamide] | 0.0968 µM
6.38 µM | 0.000496 µM | 0.053 µM | C=CC(=O)N1CC[C@H](Nc2cnc3[nH]cc(C(=O)NCCC(F)(F)F)c3n2)[C@H](OC)C1 [Example 305, 2-{[(3R,4S)-1-acryloyl-3-methoxypiperidin-4-yl]amino}-N-(3,3,3-trifluoropropyl)-5H-pyrrolo[2,3-b]pyrazine-7-carboxamide] | 0.278 µM
0.775 µM | 0.000531 µM | 0.048 µM | C=CC(=O)N1CC[C@@H](Nc2cnc3[nH]cc(C(=O)NCCCC(F)(F)F)c3n2)[C@@H](OC)C1 [Example 308, 2-{[(3S,4R)-1-acryloyl-3-methoxypiperidin-4-yl]amino}-N-(4,4,4-trifluorobutyl)-5H-pyrrolo[2,3-b]pyrazine-7-carboxamide] | 0.306 µM
0.704 µM | 0.00105 µM | 0.056 µM | C=CC(=O)N1CC[C@@H](Nc2cnc3[nH]cc(C(=O)N[C@@H](C)COC)c3n2)[C@@H](OC)C1 [Example 312, 2-{[(3S,4R)-1-acryloyl-3-methoxypiperidin-4-yl]amino}-N-[(2S)-1-methoxypropan-2-yl]-5H-pyrrolo[2,3-b]pyrazine-7-carboxamide] | 0.31 µM
0.986 µM | 0.000736 µM | 0.046 µM | C=CC(=O)N1CC[C@@H](Nc2cnc3[nH]cc(C(=O)NCC4CCCC4)c3n2)[C@@H](OC)C1 [Example 313, 2-{[(3S,4R)-1-acryloyl-3-methoxypiperidin-4-yl]amino}-N-(cyclopentylmethyl)-5H-pyrrolo[2,3-b]pyrazine-7-carboxamide] | 0.243 µM
0.211 µM | 0.000348 µM | 0.026 µM | C=CC(=O)N1CCN(c2cnc3[nH]cc(C(=O)N[C@H](CC)CC#N)c3n2)CC1 [Example 315, 2-(4-acryloylpiperazin-1-yl)-N-[(2R)-1-cyanobutan-2-yl]-5H-pyrrolo[2,3-b]pyrazine-7-carboxamide] | 0.0749 µM
